Laboratory results as given in patent US20060229433A1, “Modified antiviral peptides with increased activity and cell membrane affinity” (priority 2003, published 2006).
Several values for one entry are separate records, joined by “and”; a condition that tells them apart may be missing. Identical values can stand only once. Square brackets hold non-standard residues; d marks the D form. Peptide text beside a SMILES is read from it. Ava = NCCCCC(=O)O

How the values were obtained:
Assay type in all cases: cell-based
HIV-1 NL 4-3 [1] = test: HIV-1 infection of C8166 cells (syncytia formation, p24 ELISA) with HIV-1 NL 4-3; conditions: for Day 7 syncitia formed / P 24: Table 6; for P 24: Day 7
Procedure, shortened: (§1)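 C8166 T-cells were preincubated with peptide for 1 h at 37 °C, then exposed for 1 h to HIV-1 at 1000 TCID50/ml, washed, and cultured with peptide kept present throughout, with medium replaced at day 4. Infection was scored by syncytia formation and by supernatant p24 ELISA, with at least two runs in duplicate.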

HIV-1 NL 4-3 [2] = test: as above; design: key: ++, +, (+), (+)− and − represent decreasing numbers of syncitia formed; ++, +, (+), (+)− and − represent decreasing numbers of syncitia formed; ++, +, (+), (+)− and − represent decreasing numbers of syncitia formed; ++, +, (+), (+)− and − represent decreasing numbers of syncitia formed; ++, +, (+), (+)− and − represent decreasing numbers of syncitia formed; conditions: Table 6
Procedure, shortened: as §1

HIV-1 NDK = test: HIV-1 infection of C8166 cells (syncytia formation, p24 ELISA) with HIV-1 NDK; design: key to syncitia formed, Day 4 / syncitia formed, Day 5 / syncitia formed, Day 6 / syncitia formed, Day 7: ++, +, (+), (+)− and − represent decreasing numbers of syncitia formed; ++, +, (+), (+)− and − represent decreasing numbers of syncitia formed; ++, +, (+), (+)− and − represent decreasing numbers of syncitia formed; ++, +, (+), (+)− and − represent decreasing numbers of syncitia formed; ++, +, (+), (+)− and − represent decreasing numbers of syncitia formed; conditions: for P 24: P 24 after Day 7
Procedure, shortened: as §1

[3] = C8166 cells, HIV-1 subtype B NL 4-3, Table 9, two lines = tested twice, 8 days apart

C[C@H](NC(=O)[C@H](CCCNC(=N)N)NC(=O)CNC(=O)[C@@H]1CCCN1C(=O)CN)C(=O)N[C@@H](Cc1ccccc1)C(=O)NCCCCC(=O)O [SPC3 monomer valeric acid, GPGRAF-NHCH2CH2CH2CH2COOH] (H-GPGRAF[Ava]-OH; N-terminus assumed)
Day 7 syncitia formed (HIV-1 NL 4-3 [1]; 0.005 μM): ++/T
Day 7 syncitia formed (HIV-1 NL 4-3 [1]; 0.01 μM): ++/T
IC50 (HIV-1 NL 4-3 [1]; C8166 cells, HIV-1 subtype B NL 4-3, Table 3): 20 nM
IC50 (HIV-1 NL 4-3 [1]; [3]): 50 nM
IC100 (HIV-1 NL 4-3 [1]; [3]): 5 µM
P 24 (HIV-1 NL 4-3 [1]; 0.005 μM): 23810 pg/mL
P 24 (HIV-1 NL 4-3 [1]; 0.01 μM): 21810 pg/mL
P 24 (HIV-1 NL 4-3 [1]; 0.5 μM): 1840 pg/mL and 2830 pg/mL
P 24 (HIV-1 NL 4-3 [1]; 1 μM): 325 pg/mL and 445 pg/mL
P 24 (HIV-1 NL 4-3 [1]; 5 μM): 3 pg/mL
Day 4 syncitia formed (HIV-1 NL 4-3 [2]; 0.005 μM): −
Day 5 syncitia formed (HIV-1 NL 4-3 [2]; 0.005 μM): +
Day 6 syncitia formed (HIV-1 NL 4-3 [2]; 0.005 μM): ++
Day 4 syncitia formed (HIV-1 NL 4-3 [2]; 0.01 μM): −
Day 5 syncitia formed (HIV-1 NL 4-3 [2]; 0.01 μM): +
Day 6 syncitia formed (HIV-1 NL 4-3 [2]; 0.01 μM): ++
Day 4 syncitia formed (HIV-1 NL 4-3 [2]; 0.05 μM): −
Day 5 syncitia formed (HIV-1 NL 4-3 [2]; 0.05 μM): +
Day 6 syncitia formed (HIV-1 NL 4-3 [2]; 0.05 μM): ++
Day 7 syncitia formed (HIV-1 NL 4-3 [2]; 0.05 μM): ++
Day 4 syncitia formed (HIV-1 NL 4-3 [2]; 0.1 μM): −
Day 5 syncitia formed (HIV-1 NL 4-3 [2]; 0.1 μM): (+)
Day 6 syncitia formed (HIV-1 NL 4-3 [2]; 0.1 μM): + and ++
Day 7 syncitia formed (HIV-1 NL 4-3 [2]; 0.1 μM): ++
Day 4 syncitia formed (HIV-1 NL 4-3 [2]; 0.5 μM): −
Day 5 syncitia formed (HIV-1 NL 4-3 [2]; 0.5 μM): −
Day 6 syncitia formed (HIV-1 NL 4-3 [2]; 0.5 μM): (+)
Day 7 syncitia formed (HIV-1 NL 4-3 [2]; 0.5 μM): +
Day 4 syncitia formed (HIV-1 NL 4-3 [2]; 1 μM): −
Day 5 syncitia formed (HIV-1 NL 4-3 [2]; 1 μM): −
Day 6 syncitia formed (HIV-1 NL 4-3 [2]; 1 μM): −
Day 7 syncitia formed (HIV-1 NL 4-3 [2]; 1 μM): (+)
Day 4 syncitia formed (HIV-1 NL 4-3 [2]; 5 μM): −
Day 5 syncitia formed (HIV-1 NL 4-3 [2]; 5 μM): −
Day 6 syncitia formed (HIV-1 NL 4-3 [2]; 5 μM): −
Day 7 syncitia formed (HIV-1 NL 4-3 [2]; 5 μM): −
syncitia formed, Day 4 (HIV-1 NDK; 0.005 μM): −
syncitia formed, Day 5 (HIV-1 NDK; 0.005 μM): +
syncitia formed, Day 6 (HIV-1 NDK; 0.005 μM): ++
syncitia formed, Day 7 (HIV-1 NDK; 0.005 μM): ++/T
P 24 (HIV-1 NDK; 0.005 μM): 23810 pg/mL
syncitia formed, Day 4 (HIV-1 NDK; 0.01 μM): −
syncitia formed, Day 5 (HIV-1 NDK; 0.01 μM): +
syncitia formed, Day 6 (HIV-1 NDK; 0.01 μM): ++
syncitia formed, Day 7 (HIV-1 NDK; 0.01 μM): ++/T
P 24 (HIV-1 NDK; 0.01 μM): 21810 pg/mL
syncitia formed, Day 4 (HIV-1 NDK; 0.05 μM): −
syncitia formed, Day 5 (HIV-1 NDK; 0.05 μM): +
syncitia formed, Day 6 (HIV-1 NDK; 0.05 μM): ++
syncitia formed, Day 7 (HIV-1 NDK; 0.05 μM): ++
P 24 (HIV-1 NDK; 0.05 μM): 23810 pg/mL and 21810 pg/mL
syncitia formed, Day 4 (HIV-1 NDK; 0.1 μM): −
syncitia formed, Day 5 (HIV-1 NDK; 0.1 μM): +
syncitia formed, Day 6 (HIV-1 NDK; 0.1 μM): ++
syncitia formed, Day 7 (HIV-1 NDK; 0.1 μM): ++
P 24 (HIV-1 NDK; 0.1 μM): 11810 pg/mL and 15307 pg/mL
syncitia formed, Day 4 (HIV-1 NDK; 0.5 μM): −
syncitia formed, Day 5 (HIV-1 NDK; 0.5 μM): −
syncitia formed, Day 6 (HIV-1 NDK; 0.5 μM): +
syncitia formed, Day 7 (HIV-1 NDK; 0.5 μM): ++
P 24 (HIV-1 NDK; 0.5 μM): 11840 pg/mL and 12240 pg/mL
syncitia formed, Day 4 (HIV-1 NDK; 1 μM): −
syncitia formed, Day 5 (HIV-1 NDK; 1 μM): −
syncitia formed, Day 6 (HIV-1 NDK; 1 μM): −
syncitia formed, Day 7 (HIV-1 NDK; 1 μM): (+)
syncitia formed, Day 4 (HIV-1 NDK; 5 μM): −
syncitia formed, Day 5 (HIV-1 NDK; 5 μM): −
syncitia formed, Day 6 (HIV-1 NDK; 5 μM): −
syncitia formed, Day 7 (HIV-1 NDK; 5 μM): −
IC50 (HIV-1 NDK; HIV 1 NDK, Table 10): 200 nM
IC100 (HIV-1 NDK; HIV 1 NDK, Table 10): 5 µM
